Molecules are shown by their SMILES. “And” between values parts separate entries of the source, which are not always exact repeats. Equal values may be shown once. Inconclusive results and toxic doses are left out.

From PubChem BioAssay AID280 (DTP/NCI, 2004) come the findings set out here.

The test relates to nude mice, LOX melanoma ip, survival T/C. The test is described as follows: NCI In Vivo Anticancer Drug Screen. Data for tumor model Human Amelanotic Melanoma (LOX) (intraperitoneal) in NU/NU BALB/C (nude) mice. The settings on record: endpoint: median survival time, higher = longer survival. The protocol: The antitumor activity of compounds was measured in mice bearing transplantable tumors. Survival or tumor size were measured and the results are expressed as the measurement made in the treated group (T) divided by the measurement made in the vehicle treated control group (C). The tumor model used in this assay is Human Amelanotic Melanoma (LOX) (intraperitoneal) in NU/NU BALB/C (nude) mice

The mark [1] stands for this setting: dose: 50.0 mg/kg/injection, schedule: Q04DX003 (ip), vehicle: saline with Tween-80.
The mark [2] stands for this setting: dose: 100.0 mg/kg/injection, schedule: Q04DX003 (ip), vehicle: saline with Tween-80.
Setting [3] is: dose: 50.0 mg/kg/injection, schedule: Q04DX003 (ip), vehicle: saline.
[4] abbreviates: dose: 300.0 mg/kg/injection, schedule: Q04DX003 (ip), vehicle: saline with Tween-80.
Where [5] appears, read: dose: 6.25 mg/kg/injection, schedule: Q04DX003 (ip), vehicle: water.
The mark [6] stands for this setting: dose: 25.0 mg/kg/injection, schedule: Q04DX003 (ip), vehicle: saline with Tween-80.
[7] abbreviates: dose: 200.0 mg/kg/injection, schedule: Q04DX003 (ip), vehicle: saline with Tween-80.
[8] abbreviates: dose: 12.5 mg/kg/injection, schedule: Q04DX003 (ip), vehicle: saline with Tween-80.

Regarding `NC(=O)CCC(N)C(=O)O` (stereo not drawn), the T/C runs as follows: (dose: 75.0 mg/kg/injection, schedule: Q04DX003 (ip), vehicle: suspension in saline) 101 % of control; (dose: 150.0 mg/kg/injection, schedule: Q04DX003 (ip), vehicle: suspension in saline) 90 % of control; (dose: 300.0 mg/kg/injection, schedule: Q04DX003 (ip), vehicle: suspension in saline) 95 % of control; (dose: 600.0 mg/kg/injection, schedule: Q04DX003 (ip), vehicle: suspension in saline) 102 % of control; (dose: 1200.0 mg/kg/injection, schedule: Q04DX003 (ip), vehicle: suspension in saline) 101 % of control.

For `CCN(CC)CC(C)(C)C(=O)/C=C/c1ccc(/C=C/C(=O)C(C)(C)CN(CC)CC)cc1`, the T/C by setting is: (dose: 7.5 mg/kg/injection, schedule: Q04DX003 (ip), vehicle: saline) 103 % of control; (dose: 15.0 mg/kg/injection, schedule: Q04DX003 (ip), vehicle: saline) 116 % of control; (dose: 30.0 mg/kg/injection, schedule: Q04DX003 (ip), vehicle: saline) 109 % of control.

Consider `ClC1(Cl)Cc2ccccc21`, for which the T/C runs as follows: under setting [1], 109 % of control; under setting [2], 120 % of control; (dose: 400.0 mg/kg/injection, schedule: Q04DX003 (ip), vehicle: saline with Tween-80) 120 % of control.

As for `CC(=O)O[C@H]1C(=O)[C@@]2(C)C(C(OC(=O)c3ccccc3)[C@]3(O)C[C@H](OC(=O)C(OC(=O)CCCC(=O)NCCCN(C)C)C(NC(=O)c4ccccc4)c4ccccc4)C(C)=C1C3(C)C)C1(OC(C)=O)COC1C[C@@H]2O` (stereo partly drawn), the T/C is, setting by setting: (dose: 2.5 mg/kg/injection, schedule: Q01DX009 (ip), vehicle: water) 155 % of control; (dose: 5.0 mg/kg/injection, schedule: Q01DX009 (ip), vehicle: water) 156 % of control; (dose: 10.0 mg/kg/injection, schedule: Q01DX009 (ip), vehicle: water) 157 % of control and 225 % of control; (dose: 20.0 mg/kg/injection, schedule: Q01DX009 (ip), vehicle: water) 205 % of control and 310 % of control.

On to `O=CC(CO)CC(C=O)n1cnc2c(=O)[nH]cnc21` (stereo not drawn), for which the T/C runs as follows: under setting [3], 109 % of control; (dose: 100.0 mg/kg/injection, schedule: Q04DX003 (ip), vehicle: saline) 102 % of control; (dose: 200.0 mg/kg/injection, schedule: Q04DX003 (ip), vehicle: saline) 103 % of control; (dose: 400.0 mg/kg/injection, schedule: Q04DX003 (ip), vehicle: saline) 113 % of control; (dose: 800.0 mg/kg/injection, schedule: Q04DX003 (ip), vehicle: saline) 100 % of control.

Take `CC(=O)NC(CCc1ccc(Cl)c(Cl)c1)c1cccc(O)c(=O)c1` (stereo not drawn): the T/C reads like this: (dose: 86.4 mg/kg/injection, schedule: Q04DX003 (ip), vehicle: Klucel (hydroxypropylcellulose) (HPC)) 98 % of control; (dose: 240.0 mg/kg/injection, schedule: Q04DX003 (ip), vehicle: Klucel (hydroxypropylcellulose) (HPC)) 109 % of control.

For the compound `COc1cc(NS(C)(=O)=O)ccc1Nc1c2ccccc2nc2ccccc12`, the T/C reads like this: (dose: 2.5 mg/kg/injection, schedule: Q04DX003 (ip), vehicle: other) 117 % of control; (dose: 5.0 mg/kg/injection, schedule: Q04DX003 (ip), vehicle: other) 122 % of control.

As for `CCN(CC)c1ccc2[nH]c3c(C(N)=O)cc(=O)c(=O)c=3oc2c1`, the T/C by setting is: (dose: 150.0 mg/kg/injection, schedule: Q04DX003 (ip), vehicle: saline with Tween-80) 110 % of control; under setting [4], 96 % of control.

For the compound `CN=C(N)N/N=C(\C)c1ccc2sc3ccc(/C(C)=N/NC(N)=NC)cc3c2c1`, the T/C reads like this: (dose: 37.5 mg/kg/injection, schedule: Q04DX003 (ip), vehicle: saline with Tween-80) 121 % of control; (dose: 75.0 mg/kg/injection, schedule: Q04DX003 (ip), vehicle: saline with Tween-80) 117 % of control; under setting [4], 182 % of control; (dose: 600.0 mg/kg/injection, schedule: Q04DX003 (ip), vehicle: saline with Tween-80) 116 % of control.

For `O=NNc1ccc(Cl)cn1`, the T/C runs as follows: (dose: 2.5 mg/kg/injection, schedule: Q04DX003 (ip), vehicle: water) 105 % of control; (dose: 3.13 mg/kg/injection, schedule: Q04DX003 (ip), vehicle: water) 111 % of control; (dose: 5.0 mg/kg/injection, schedule: Q04DX003 (ip), vehicle: water) 101 % of control; under setting [5], 112 % of control; (dose: 10.0 mg/kg/injection, schedule: Q04DX003 (ip), vehicle: water) 118 % of control; (dose: 20.0 mg/kg/injection, schedule: Q04DX003 (ip), vehicle: water) 124 % of control.

For `O=NNc1cccnc1`, the T/C by setting is: under setting [5], 100 % of control and 101 % of control; (dose: 12.5 mg/kg/injection, schedule: Q04DX003 (ip), vehicle: water) 109 % of control and 101 % of control; (dose: 25.0 mg/kg/injection, schedule: Q04DX003 (ip), vehicle: water) 113 % of control and 98 % of control; (dose: 50.0 mg/kg/injection, schedule: Q04DX003 (ip), vehicle: water) 114 % of control and 96 % of control; (dose: 100.0 mg/kg/injection, schedule: Q04DX003 (ip), vehicle: water) 103 % of control and 117 % of control.

Take `CS(=O)(=O)CS(=O)(=O)OCCF`: the T/C by setting is: (dose: 3.13 mg/kg/injection, schedule: Q04DX003 (ip), vehicle: saline) 152 % of control; (dose: 6.25 mg/kg/injection, schedule: Q04DX003 (ip), vehicle: saline) 295 % of control; (dose: 12.5 mg/kg/injection, schedule: Q04DX003 (ip), vehicle: saline) 295 % of control; (dose: 25.0 mg/kg/injection, schedule: Q04DX003 (ip), vehicle: saline) 295 % of control; under setting [3], 295 % of control.

As for `CCC(=O)Sc1ccccc1C(=O)Nc1ccc(Cl)cc1`, the T/C under setting [6] was 99 % of control, the T/C under setting [1] was 107 % of control, the T/C under setting [2] is 110 % of control and the T/C under setting [7] is 113 % of control.

As to `Cc1cccc(OCC(O)CN2CC2)c1` (stereo not drawn), the T/C is 104 % of control under setting [6]; 122 % of control and 99 % of control under setting [1]; 121 % of control under setting [2]; 122 % of control under setting [7].

As for `CC(C)N1C(=O)N(Cl)C2C1N(Cl)C(=O)N2Cl` (stereo not drawn), the T/C by setting is: (dose: 6.25 mg/kg/injection, schedule: Q04DX003 (ip), vehicle: saline with Tween-80) 103 % of control and 88 % of control; under setting [8], 102 % of control and 88 % of control; under setting [6], 109 % of control and 98 % of control; under setting [1], 107 % of control and 121 % of control; under setting [2], 102 % of control and 120 % of control.

Consider `Nc1nc2c(C(=O)N3CCCC3)nnn2c2ccccc12`, for which the T/C reads like this: under setting [8], 96 % of control; under setting [6], 102 % of control; under setting [1], 92 % of control.

For the compound `CNC(=O)OCc1nc(SC)n(C)c1COC(=O)NC`, the T/C was 179 % of control (dose: 51.2 mg/kg/injection, schedule: Q04DX003 (ip), vehicle: water); 156 % of control (dose: 57.5 mg/kg/injection, schedule: Q04DX003 (ip), vehicle: saline); 229 % of control (dose: 76.7 mg/kg/injection, schedule: Q04DX003 (ip), vehicle: water); 234 % of control (dose: 115.0 mg/kg/injection, schedule: Q04DX003 (ip), vehicle: saline); 354 % of control (dose: 115.0 mg/kg/injection, schedule: Q04DX003 (ip), vehicle: water).

On to `Nc1nc(Br)nc2c1ncn2C1CC(O)C(CO)O1` (stereo not drawn), for which the T/C is 99 % of control under setting [8]; 106 % of control under setting [6]; 104 % of control under setting [1]; 104 % of control under setting [2]; 93 % of control under setting [7].

For `S=C1CCCCN1`, the T/C (dose: 37.5 mg/kg/injection, schedule: Q04DX003 (ip), vehicle: distilled water + Tween-80 + alcohol) is 98 % of control; the T/C (dose: 75.0 mg/kg/injection, schedule: Q04DX003 (ip), vehicle: distilled water + Tween-80 + alcohol) was 100 % of control; the T/C (dose: 150.0 mg/kg/injection, schedule: Q04DX003 (ip), vehicle: distilled water + Tween-80 + alcohol) is 111 % of control.

As for `Cc1c2ccccc2c(C)c2c1cc(C(=O)O)c1ccccc12`, the T/C by setting is: (dose: 12.5 mg/kg/injection, schedule: Q04DX003 (ip), vehicle: sodium bicarbonate) 115 % of control; (dose: 25.0 mg/kg/injection, schedule: Q04DX003 (ip), vehicle: sodium bicarbonate) 118 % of control; (dose: 200.0 mg/kg/injection, schedule: Q04DX003 (ip), vehicle: sodium bicarbonate) 167 % of control.
